From patent US6566349B1 (priority 2000, dated 2003)
Where two headings read alike, the source gives them in different places.

Columns and labels:
Bandedwinged Whitefly [1] = conditions: in vivo
Bandedwinged Whitefly [2] = conditions: in vivo; remark: listed apart in the source
Thrips = format: in vivo
Beet Armyworm [3] = test: Control of beet armyworm in cotton; format: in vivo, beet armyworm (Spodoptera exigua)
Tobacco Budworm = test: Tobacco budworm boll damage in cotton; format: in vivo, tobacco budworm (Heliothis virescens); conditions: 50 bolls, lb./A: chlorpyrifos + dimethoate 0.62, chlorpyrifos 0.50, Dash 2.0, control 45
Beet Armyworm [4] = test: Control of beet armyworm in sweet corn; format: in vivo, beet armyworm (Spodoptera exigua)
Fall Armyworm = test: Control of fall armyworm in sweet corn; format: in vivo, fall armyworm (S. fruqiperda)
[5] = tested on: cabbage looper (Trichoplasia ni); test: Control of cabbage pests in cabbage: cabbage looper; format: in vivo
[6] = tested on: diamondback moth (Plutella xylostelia); test: Control of cabbage pests in cabbage: diamondback moth; format: in vivo
[7] = tested on: imported cabbageworm (Pieris rapae); test: Control of cabbage pests in cabbage: imported cabbageworm; format: in vivo
cotton aphid [8] = format: in vivo
cotton aphid [9] = format: in vivo; conditions: for Cotton aphid count 2 days after treatment: 5 leaves per plot, untreated 1277; for Cotton aphid count 2 days after treatment / Cotton aphid % control 2 days after treatment: lb./A: methyl parathion 0.5, oxydemeton-methyl 0.25, Dash 2.0, 53 gallons/A
[10] = tested on: Colorado Potato Beetle (Leptinotarsa decemlineata); test: Control of Colorado potato beetle in potatoes; format: in vivo; conditions: adjuvant 0.88 lb/A where added; for Total Number of larvae from a six meter plot, 3 DAT L2 / Total Number of larvae from a six meter plot, 7 DAT L2: first and second instar; for Total Number of larvae from a six meter plot, 3 DAT L4 / Total Number of larvae from a six meter plot, 7 DAT L4: third and fourth instar
Description: The efficacy of Guthion™ (azinphosmethyl) alone and in combination with Dash HC® against the Colorado Potato Beetle (Leptinotarsa decemlineata) on potatoes. The test plot area was monitored for the presence of significant naturally occurring populations of the target pest, Colorado potato beetle (CPB). At the critical pest population threshold, treatments were applied to 6 meter, single row plots of the crop using a CO2 pressurized backpack sprayer.
Treatments were sprayed on potatoes in the early bloom stage to a mature population of the Colorado potato beetle. Larvae were evaluated in two classes: class one=first and second instar larvae, class two=third and fourth instar. Population counts were taken at 3 and 7 days after treatment. Trial results can be seen in Table 8.
Azinphosmethyl was applied at a rate of 0.375 lb ai/A. The recommended rate for CPB control. The insecticide was combined with water at a rate of 64.1 gal/acre. […].
Azinphosmethyl was applied at a rate of 0.30 lb ai/A. This is a 20% reduction below the recommended rate for CPB control. The insecticide was combined with water at a rate of 64.1 gal/Acre.
Azinphosmethyl was applied at a rate of 0.19 lb ai/A. This is ½ of the recommended label rate for CPB control. The insecticide was combined with water at a rate of 64.1 gal/acre.
Azinphosmethyl was applied at a rate of 0.375 lb ai/A. The recommended rate for CPB control. The insecticide was combined with water at a rate of 64.1 gal/a.
Azinphosmethyl was applied at a rate of 0.30 lb ai/A. This is a 20% reduction below the recommended rate for CPB control. The insecticide was combined with water at a rate of 64.1 gal/Acre. […] With the 64.1 gal of water used to deliver the mix, the resultant adjuvant concentration was 0.383%.
Azinphosmethyl was applied at a rate of 0.19 lb ai/A. This is ½ of the recommended label rate for CPB control. The insecticide was combined with water at a rate of 64.1 gal/acre. […] With the 64.1 gal of water used to deliver the mix, the resultant adjuvant concentration was 0.383%.

[11] = cotton, lb./A: acephate 0.20, dicrotophos 0.20, Dash 2.0
[12] = lb./A: chlorpyrifos + dimethoate 0.45, chlorpyrifos 0.94, Dash 2.0
[13] = chlorpyrifos 0.62 lb.ai/A, DASH 0.88 lb/a where added
[14] = chlorpyrifos 1.0 lb.ai/A, DASH 0.88 lb/a where added
[15] = chlorpyrifos 1.24 lb.ai/A alone (treatment B), control 2.3

## COP(=O)(NC(C)=O)SC (stereo not shown) [Acephate, O,S-dimethyl acetylphosphoramidothioate]
Bandedwinged Whitefly [1]
  # Whitefly adults counted, 7 days after treatment: 54
  Whitefly adults % control, 3 days after treatment: (98) %
  Whitefly adults % control, 7 days after treatment: (90) %
Bandedwinged Whitefly [2]
  Whitefly adults % control, 3 days after treatment: (98) %
Thrips; [11]
  Thrips % control, 1 DAT: (80) %
  Thrips % control, 5 DAT: (35) %
  Thrips % control, 9 DAT: (44) %
Thrips; cotton, lb./A: acephate 0.20, dicrotophos 0.20, Dash 2.0, 15 gallons/A, control 252 ± 88
  # Thrips/10 Plants, 0 DAT: 174 ± 50
Thrips; cotton, lb./A: acephate 0.20, dicrotophos 0.20, Dash 2.0, control 36 ± 32
  # Thrips/10 Plants, 9 DAT: 20 ± 18
Thrips; cotton, lb./A: acephate 0.20, dicrotophos 0.20, Dash 2.0, control 65 ± 43
  # Thrips/10 Plants, 5 DAT: 42 ± 17
Thrips; cotton, lb./A: acephate 0.20, dicrotophos 0.20, Dash 2.0, control 115 ± 50
  # Thrips/10 Plants, 1 DAT: 21 ± 9

## CCOP(=S)(OCC)Oc1nc(Cl)c(Cl)cc1Cl [Chlorpyrifos]
Beet Armyworm [3]; chlorpyrifos at half-to-two-thirds the labeled rate
  beet armyworm control, tankmixed with Dash versus applied alone at the same rates: effective and better beet armyworm control when takmixed with Dash than when applied alone
Beet Armyworm [3]; cotton, 13-ft row section, lb./A: chlorpyrifos + dimethoate 0.62, chlorpyrifos 0.50, Dash 2.0, 20 gallons/A, control 112
  # Beet Armyworms 3 days after treatment: 73
Beet Armyworm [3]; cotton, lb./A: chlorpyrifos + dimethoate 0.62, chlorpyrifos 0.50, Dash 2.0
  Beet Armyworms % control 3 days after treatment: 38%
Tobacco Budworm
  % Bolls Damaged by Tobacco Budworm 3 DAT: 42%
Beet Armyworm [4]; [12]
  Beet Armyworm % control 4 DAT: 66%
Beet Armyworm [4]; lb./A: chlorpyrifos + dimethoate 0.45, chlorpyrifos 0.94, Dash 2.0, 33 gallons/A, control 3
  # Beet Armyworm 4 DAT: 1
Fall Armyworm; [12]
  Fall Armyworm % control 4 DAT: 95%
Fall Armyworm; lb./A: chlorpyrifos + dimethoate 0.45, chlorpyrifos 0.94, Dash 2.0, 33 gallons/A, control 5
  # Fall Armyworm 4 DAT: 0.25
[5]; 3 plants per plot, chlorpyrifos 1.24 lb.ai/A alone (treatment B), control 1.7
  # of larvae TRIPNI 4DAT: 0.7
[5]; [13]
  # of larvae TRIPNI 4DAT: 2.7
  # of larvae TRIPNI 7DAT: 0.7
[5]; [14]
  # of larvae TRIPNI 4DAT: 1.3
  # of larvae TRIPNI 7DAT: 2.0
[5]; chlorpyrifos 1.24 lb.ai/A alone (treatment B), control 0.3
  # of larvae TRIPNI 7DAT: 0.7
[6]; [13]
  # of larvae PLUTMA 4DAT: 0.7
  # of larvae PLUTMA 7DAT: 0.3
[6]; [14]
  # of larvae PLUTMA 4DAT: 0.3
  # of larvae PLUTMA 7DAT: 0
[6]; chlorpyrifos 1.24 lb.ai/A alone (treatment B), control 1.7
  # of larvae PLUTMA 7DAT: 1.0
[6]; [15]
  # of larvae PLUTMA 4DAT: 1.0
[7]; [13]
  # of larvae PIERRA 4DAT: 0
  # of larvae PIERRA 7DAT: 0.3
[7]; [14]
  # of larvae PIERRA 4DAT: 0
  # of larvae PIERRA 7DAT: 1.0
[7]; [15]
  # of larvae PIERRA 7DAT: 1.3
[7]; chlorpyrifos 1.24 lb.ai/A alone (treatment B), control 4.7
  # of larvae PIERRA 4DAT: 0

## COP(=O)(OC)O/C(C)=C/C(=O)N(C)C [Dicrotophos]
Thrips; in vivo
  # Thrips/10 Plants, 0 DAT: 228 ± 108
  # Thrips/10 Plants, 1 DAT: 31 ± 12
  # Thrips/10 Plants, 5 DAT: 36 ± 28
  # Thrips/10 Plants, 9 DAT: 35 ± 16
  Thrips % control, 1 DAT: (73) %
  Thrips % control, 5 DAT: (45) %
  Thrips % control, 9 DAT: (03) %

## CNC(=O)CSP(=S)(OC)OC [Dimethoate, O,O-dimethyl S-methylcarbamoylmethyl phosphorodithioate]
Cotton aphid [8]; in vivo
  aphid control on tank-mixing with the adjuvant: Improvement in aphid control
Cotton aphid [8]; okra, 20 leaves per plot, lb./A: methyl parathion 0.5, dimethoate 0.25, chlorpyrifos 0.17 + dimethoate 0.14, Dash 2.0, 30 gallons/A, untreated 132
  Cotton aphid count 2 days after treatment: 19
Cotton aphid [8]; okra, lb./A: methyl parathion 0.5, dimethoate 0.25, chlorpyrifos 0.17 + dimethoate 0.14, Dash 2.0, 30 gallons/A
  Cotton aphid % control 2 days after treatment: 86%

## COP(=S)(OC)Oc1ccc([N+](=O)[O-])cc1 [Methyl parathion, O,O-dimethyl O-(4-nitrophenyl)phosphorothioate]
Cotton aphid [9]
  Cotton aphid count 2 days after treatment: 293
  Cotton aphid % control 2 days after treatment: 77%
Cotton aphid [9]; rates below the recommended maximum rate for aphid control
  cotton aphid control, tank-mixed with the adjuvant versus applied alone: much higher when tank-mixed with the adjuvant than when applied alone
Cotton aphid [8]; in vivo
  Cotton aphid % control 2 days after treatment: 21 (84) %
  Cotton aphid count 2 days after treatment: 21 (84)

## CC[S+]([O-])CCSP(=O)(OC)OC (stereo not shown) [Oxydemeton-methyl]
Cotton aphid [9]
  Cotton aphid count 2 days after treatment: 74
  Cotton aphid % control 2 days after treatment: 94%
Cotton aphid [9]; in vivo
  aphid control on tank-mixing with the adjuvant: Improvement in aphid control

## COP(=S)(OC)SCn1nnc2ccccc2c1=O [azinphosmethyl]
[10]; azinphosmethyl 0.19 lb ai/A
  Total Number of larvae from a six meter plot, 3 DAT L2: 4.0
  Total Number of larvae from a six meter plot, 7 DAT L2: 1.3
  Total Number of larvae from a six meter plot, 3 DAT L4: 11.7
  Total Number of larvae from a six meter plot, 7 DAT L4: 6.0
[10]; azinphosmethyl 0.30 lb ai/A
  Total Number of larvae from a six meter plot, 3 DAT L2: 5.0
  Total Number of larvae from a six meter plot, 7 DAT L2: 1.0
  Total Number of larvae from a six meter plot, 3 DAT L4: 7.7
  Total Number of larvae from a six meter plot, 7 DAT L4: 3.0
[10]; azinphosmethyl 0.375 lb ai/A, control 3.0
  Total Number of larvae from a six meter plot, 7 DAT L2: 6.0
[10]; azinphosmethyl 0.375 lb ai/A, control 29.7
  Total Number of larvae from a six meter plot, 3 DAT L2: 0.7
[10]; azinphosmethyl 0.375 lb ai/A, control 24.3
  Total Number of larvae from a six meter plot, 7 DAT L4: 5.0
[10]; azinphosmethyl 0.375 lb ai/A, control 79.3
  Total Number of larvae from a six meter plot, 3 DAT L4: 12.3
